Results on 37 compounds are retold here after patent publication US10858335B2 (Rigel Pharmaceuticals, Inc., priority 2014, dated 2020).

The structures appear in SMILES notation.

For this assay, the system named is GDF8 signaling (p-SMAD-3 (Ser423/425)). The assay is described as follows: AlphaScreen SureFire SMAD3 (p-Ser423/425) assay, GDF8-stimulated cells (GDF pSMAD). In kind it is cell-based. As to conditions: Mus musculus, MPC-11, MPC11; GDF8-stimulated; p-SMAD3 AlphaScreen; read-out: GDF pSMAD (MPC11) (inhibition of GDF8 signaling). An excerpt: Biological Example 1: AlphaScreen® SureFire® SMAD3 (p-Ser423/425) Assay
The p-SMAD-3 (Ser423/425) SureFire® assay has been designed to measure the phosphorylation of endogenous cellular p-SMAD-3 (Ser423/425) in cell lysates and is a system for the screening of both modulators of receptor activation (e.g. agonists and antagonists) as well as agents acting intracellularly, such as small molecule inhibitors of upstream events. The assay will measure p-SMAD-3 (Ser423/425) activation by either cloned or endogenous receptors, and can be applied to primary cells.
P-SMAD-3 (Ser423/425) SureFire® Assay Protocols
Step A: Preparation of Buffers
1× Lysis buffer: 1 ml of 5× Lysis buffer was diluted with 4 ml of sterile water. After dilution, excess 1× Lysis buffer can be frozen and thawed up to 5 times without loss in activity.
Activation buffer: The buffer was warmed slowly to 37° C. and gently mixed to re-suspend. Activation buffer can be stored at room temperature with no loss in activity.
Reaction buffer: The buffer was kept at 4° C. while in use.
AlphaScreen® Protein A IgG Kit: The kit was stored at 4° C. in the dark.
Reaction buffer+Activation buffer+AlphaScreen® Acceptor beads: Reaction buffer (40 parts), Activation Buffer (10 parts) and Acceptor beads (1 part) were mixed and the mixture was stored at room temperature and used the same day. Mixture was added to 384-well plates; excess mixture was discarded.
Dilution buffer+AlphaScreen® Donor beads: Dilution buffer (20 parts) and Donor beads (1 part) were mixed and the mixture was stored at room temperature and used the same day. Excess mixture was discarded.
Assay control samples: After reconstitution in 250 μl of water, lysates were at −20° C. in single use aliquots.
Step B: Preparation of Samples and Cells
96-well Assay Protocol for 293FT and RMS13 adherent cells can be carried out manually or in high throughput with liquid handling robots.
The cells (80 μL of cells for 96 well plates) were plated in collagen coated tissue culture plates in RPMI or FreeStyle medium (Invitrogen) and incubated overnight. For manual analysis, 6 plates for GDF8, 6 plates for TGFβ, and optionally 6 plates for AlkSca(ALK5 constitutively active) were used.
The compound dilution plates were prepared as follows: 12 μL of DMSO was transferred into first column of 96-well plate, and 16 μL of DMSO was transferred into columns 2-12 of the 96-well plate. 12 μL of compound solution was transferred into first column of the DMSO-containing 96-well plate. Three-fold dilution was performed up to column 10 of the DMSO-containing 96-well plate.
Step C: Treatment and Analysis
The plate containing cells were treated with compounds for about 10 minutes, and then ligand was added. GDF8 or TGFb was added to plates to stimulate. 293FL cells were stimulated for 90 minutes at 37° C.; and RMS13 cells were stimulated for 60 minutes at 37° C. The medium was then removed from the cells, and 1× Lysis Buffer (about 25 μL) was added and the plate was gently agitated on plate shaker for 5-10 minutes.
The lysate (5 μL) was then placed into 384-well shallow plates avoiding the generation of bubbles. To this, the Reaction Buffer+Activation Buffer+AlphaScreen® Acceptor beads mixture (5 μL) was added. The plate was sealed with adhesive cover and shielded from light (e.g., with metal foil), and agitated gently on plate shaker for 2 hours at room temperature.
Dilution buffer+AlphaScreen® Donor beads (2 μL) was then added, and the plate was intubated on the plate shaker for an additional 1½ hours. After completion, the plate was read on Synergy-4 or Enspire plate reader, using AlphaScreen® pSMAD3® settings.
Representative results for inhibition of GDF8 signaling are shown in Table 2(data=GDF pSMAD (MPC11) (μM)): […]
On to `COc1cccc(-c2ncccc2-c2ccc3[nH]ncc3c2)c1` [Compound 117, 5-(2-(3-Methoxyphenyl)pyridin-3-yl)-1H-indazole], for which the IC50 came out at 0.179 µM.

As to `COc1ccc(-c2ncccc2-c2ccc3[nH]ncc3c2)cc1` [Compound 118, 5-(2-(4-Methoxyphenyl)pyridin-3-yl)-1H-indazole], the IC50 amounted to 3.79 µM.

On to `Oc1cccc(-c2ncccc2-c2ccc3[nH]ncc3c2)c1` [Compound 120, 3-(3-(1H-Indazol-5-yl)pyridin-2-yl)phenol], for which the IC50 worked out at 0.363 µM.

For the compound `Oc1ccc(-c2ncccc2-c2ccc3[nH]ncc3c2)cc1` [Compound 121, 4-(3-(1H-Indazol-5-yl)pyridin-2-yl)phenol], the IC50 was 5.35 µM.

`Cc1cc(-c2ncccc2-c2ccc3[nH]ncc3c2)ccc1O` [Compound 122, 4-(3-(1H-Indazol-5-yl)pyridin-2-yl)-2-methylphenol]: the IC50 amounted to 4.04 µM.

Consider `COc1cc(-c2ncccc2-c2ccc3[nH]ncc3c2)ccc1F` [Compound 124, 5-(2-(4-Fluoro-3-methoxyphenyl)pyridin-3-yl)-1H-indazole], for which the IC50 amounted to 0.548 µM.

Regarding `Fc1ccc(-c2ncccc2-c2cnc3cn[nH]c3c2)cc1F` [Compound 137, 6-(2-(3,4-Difluorophenyl)pyridin-3-yl)-1H-pyrazolo[4,3-b]pyridine], the IC50 worked out at 22.8 µM.

`Cc1cc(-c2ncccc2-c2cnc3cn[nH]c3c2)ccc1F` [Compound 138, 6-(2-(4-Fluoro-3-methylphenyl)pyridin-3-yl)-1H-pyrazolo[4,3-b]pyridine]: the IC50 came out at 4.33 µM.

On to `Cc1cccc(-c2ncccc2-c2cnc3cn[nH]c3c2)c1` [Compound 139, 6-(2-m-Tolylpyridin-3-yl)-1H-pyrazolo[4,3-b]pyridine], for which the IC50 amounted to 3.37 µM.

As to `Cc1ccc(F)c(-c2ncccc2-c2cnc3cn[nH]c3c2)c1` [Compound 140, 6-(2-(2-Fluoro-5-methylphenyl)pyridin-3-yl)-1H-pyrazolo[4,3-b]pyridine], the IC50 worked out at 2.89 µM.

For `N#Cc1cccc(-c2ncccc2-c2cnc3cn[nH]c3c2)c1` [Compound 141, 3-(3-(1H-Pyrazolo[4,3-b]pyridin-6-yl)pyridin-2-yl)benzonitrile], the IC50 turned out to be 18.6 µM.

Take `COc1cccc(-c2ncccc2-c2cnc3cn[nH]c3c2)c1` [Compound 142, 6-(2-(3-Methoxyphenyl)pyridin-3-yl)-1H-pyrazolo[4,3-b]pyridine]: the IC50 is 1.19 µM.

Take `COc1cc(-c2ncccc2-c2cnc3cn[nH]c3c2)ccc1F` [Compound 143, 6-(2-(4-Fluoro-3-methoxyphenyl)pyridin-3-yl)-1H-pyrazolo[4,3-b]pyridine]: the IC50 came out at 12.2 µM.

Turning to `Oc1cccc(-c2ncccc2-c2cnc3cn[nH]c3c2)c1` [Compound 144, 3-(3-(1H-Pyrazolo[4,3-b]pyridin-6-yl)pyridin-2-yl)phenol], the IC50 is 9.39 µM.

As to `Cc1cc(-c2ncccc2-c2ccc3c(cnn3C)c2)ccc1F` [Compound 145, 5-(2-(4-Fluoro-3-methylphenyl)pyridin-3-yl)-1-methyl-1H-indazole], the IC50 stood at 1.13 µM.

Consider `Cc1cccc(-c2ncccc2-c2ccc3c(cnn3C)c2)c1` [Compound 146, 1-Methyl-5-(2-m-tolylpyridin-3-yl)-1H-indazole], for which the IC50 stood at 0.621 µM.

With `CCc1cccc(-c2ncccc2-c2ccc3[nH]ncc3c2)c1` [Compound 149, 5-(2-(3-Ethylphenyl)pyridin-3-yl)-1H-indazole], the IC50 stood at 0.642 µM.

Turning to `c1cc(-c2ncccc2-c2ccc3[nH]ncc3c2)cc(C2CC2)c1` [Compound 150, 5-(2-(3-Cyclopropylphenyl)pyridin-3-yl)-1H-indazole], the IC50 amounted to 0.208 µM.

In the case of `CCc1cccc(-c2ncccc2-c2cnc3[nH]ncc3c2)c1` [Compound 151, 5-(2-(3-Ethylphenyl)pyridin-3-yl)-1H-pyrazolo[3,4-b]pyridine], the IC50 is 0.678 µM.

In the case of `c1cc(-c2ncccc2-c2cnc3[nH]ncc3c2)cc(C2CC2)c1` [Compound 152, 5-(2-(3-Cyclopropylphenyl)pyridin-3-yl)-1H-pyrazolo[3,4-b]pyridine], the IC50 is 0.0487 µM.

Turning to `Cc1ccc(F)c(-c2ncccc2-c2cnc3[nH]ncc3c2)c1` [Compound 153, 5-(2-(2-Fluoro-5-methylphenyl)pyridin-3-yl)-1H-pyrazolo[3,4-b]pyridine], the IC50 came to 0.45 µM.

Regarding `N#Cc1cccc(-c2ncccc2-c2cnc3[nH]ncc3c2)c1` [Compound 154, 3-(3-(1H-Pyrazolo[3,4-b]pyridin-5-yl)pyridin-2-yl)benzonitrile], the IC50 came to 1.31 µM.

On to `COc1cccc(-c2ncccc2-c2cnc3[nH]ncc3c2)c1` [Compound 155, 5-(2-(3-Methoxyphenyl)pyridin-3-yl)-1H-pyrazolo[3,4-b]pyridine], for which the IC50 was found to be 0.224 µM.

As to `Oc1cccc(-c2ncccc2-c2cnc3[nH]ncc3c2)c1` [Compound 156, 3-(3-(1H-Pyrazolo[3,4-b]pyridin-5-yl)pyridin-2-yl)phenol], the IC50 stood at 1.79 µM.

On to `COc1cc(-c2ncccc2-c2cnc3[nH]ncc3c2)ccc1F` [Compound 157, 5-(2-(4-Fluoro-3-methoxyphenyl)pyridin-3-yl)-1H-pyrazolo[3,4-b]pyridine], for which the IC50 amounted to 1.56 µM.

For the compound `N#Cc1cc(-c2ncccc2-c2cnc3[nH]ncc3c2)ccc1F` [Compound 158, 5-(3-(1H-Pyrazolo[3,4-b]pyridin-5-yl)pyridin-2-yl)-2-fluorobenzonitrile], the IC50 came to 1.86 µM.

`Cc1cc(-c2ncccc2-c2ccc3ncsc3c2)ccc1F` [Compound 159, 6-(2-(4-Fluoro-3-methylphenyl)pyridin-3-yl)benzo[d]thiazole]: the IC50 turned out to be 0.13 µM.

As for `Cc1cccc(-c2ncccc2-c2ccc3ncsc3c2)c1` [Compound 160, 6-(2-m-Tolylpyridin-3-yl)benzo[d]thiazole], the IC50 came out at 0.0843 µM.

Take `Cc1cc(-c2ncccc2-c2ccc3nncn3c2)ccc1F` [Compound 161, 6-(2-(4-Fluoro-3-methylphenyl)pyridin-3-yl)-[1,2,4]triazolo[4,3-a]pyridine]: the IC50 stood at 9.1 µM.

For the compound `Cc1cccc(-c2ncccc2-c2ccc3nncn3c2)c1` [Compound 162, 6-(2-m-Tolylpyridin-3-yl)-[1,2,4]triazolo[4,3-a]pyridine], the IC50 amounted to 5.66 µM.

With `Cc1cc(-c2ncccc2-c2ccc3nccn3c2)ccc1F` [Compound 165, 6-(2-(4-Fluoro-3-methylphenyl)pyridin-3-yl)imidazo[1,2-a]pyridine], the IC50 was found to be 0.265 µM.

For the compound `Cc1cccc(-c2ncccc2-c2ccc3nccn3c2)c1` [Compound 166, 6-(2-m-Tolylpyridin-3-yl)imidazo[1,2-a]pyridine], the IC50 is 0.109 µM.

In the case of `CC(C)c1cccc(-c2ncccc2-c2cnc3[nH]ncc3c2)c1` [Compound 167, 5-(2-(3-Isopropylphenyl)pyridin-3-yl)-1H-pyrazolo[3,4-b]pyridine], the IC50 amounted to 17.5 µM.

With `C1=C(c2cccc(-c3ncccc3-c3cnc4[nH]ncc4c3)c2)CCC1` [Compound 170, 5-(2-(3-Cyclopentenylphenyl)pyridin-3-yl)-1H-pyrazolo[3,4-b]pyridine], the IC50 was 1.96 µM.

As to `Cc1cc(-c2ncccc2-c2cc3cn[nH]c3cc2C)ccc1F` [Compound 173, 5-(2-(4-Fluoro-3-methylphenyl)pyridin-3-yl)-6-methyl-1H-indazole], the IC50 turned out to be 1.83 µM.

Turning to `Cc1cccc(-c2ncccc2-c2cc3cn[nH]c3cc2C)c1` [Compound 174, 6-Methyl-5-(2-m-tolylpyridin-3-yl)-1H-indazole], the IC50 came to 1.18 µM.

`Cc1cc(-c2ncccc2-c2cc(C)c3[nH]ncc3c2)ccc1F` [Compound 175, 5-(2-(4-Fluoro-3-methylphenyl)pyridin-3-yl)-7-methyl-1H-indazole]: the IC50 stood at 0.118 µM.
